According to patent publication US9012446B2, “Amino-oxazines and amino-dihydrothiazine compounds as beta-secretase modulators and methods of use” (Amgen Inc., priority 2010, dated 2015):
Read-outs that look alike come from different tables or passages of the source.

Experiments:
Aβ40 = assay: In vitro BACE cell-based assay (Aβ40 sandwich ELISA, cells stably expressing APP)
Protocol: In Vitro BACE Cell-Based Assay […] Cells stably expressing Amyloid Precursor Protein (APP) were plated at a density of 40K cells/well in 96 well plates (Costar). The cells were cultivated for 24 hours at 37° C. and 5% CO2 in DMEM supplemented with 10% FBS. The test compounds were then added to cells in 10-point dose response concentrations with the starting concentration being either 100 μM or 10 μM. The compounds were diluted from stock solutions in DMSO and the final DMSO concentration of the test compounds on cells was 0.1%. […] The IC50 of the compound was calculated from the percent of control or percent inhibition of Aβ40 as a function of the concentration of the test compound. The sandwich ELISA to detect Aβ40 was performed in 96 well microtiter plates, which were pre-treated with goat anti-rabbit IgG (Pierce). […] The optimal concentration for the pAb40 antibody was 3 μg/ml in Superblock/TBS (Pierce) that was supplemented with 0.05% Tween 20 (Sigma). […] Cellular supernatants were incubated with the capture antibody for 3 h at 4° C., followed by 3 wash steps in TBS-tween (0.05%). The detecting antibody incubation was for 2 h at 4° C., again followed by the wash steps as described previously. The final readout of the ELISA is Time-Resolved Fluorescence (counts per minute) using Delfia reagents Streptavidin-Europium and Enhancement solutions (Perkin Elmer) and the Victor 2 multilabel counter (Perkin Elmer).

BACE = BACE (Homo sapiens, UniProt P56817); assay: In vitro enzymatic BACE FRET assay; type: biochemical; conditions: average IC50, enzyme assay; read-out: BACE 1 FRET assay
Sequence of BACE (P56817 46-501, species assumed): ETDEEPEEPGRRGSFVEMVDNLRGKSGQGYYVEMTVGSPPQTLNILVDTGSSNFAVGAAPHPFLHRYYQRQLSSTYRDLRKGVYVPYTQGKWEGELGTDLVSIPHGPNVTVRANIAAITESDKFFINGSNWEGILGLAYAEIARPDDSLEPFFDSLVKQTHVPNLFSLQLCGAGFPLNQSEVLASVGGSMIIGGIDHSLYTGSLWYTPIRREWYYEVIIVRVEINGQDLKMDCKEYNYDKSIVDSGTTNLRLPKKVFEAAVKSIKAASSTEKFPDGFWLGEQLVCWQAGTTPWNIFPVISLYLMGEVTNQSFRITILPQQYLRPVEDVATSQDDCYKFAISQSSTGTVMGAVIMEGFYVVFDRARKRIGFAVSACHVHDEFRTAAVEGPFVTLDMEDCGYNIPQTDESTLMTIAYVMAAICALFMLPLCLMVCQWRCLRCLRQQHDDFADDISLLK
Protocol: In Vitro Enzymatic BACE FRET (Fluorescence Resonance Energy Transfer) Assay (Enzyme Assay Data in the Example Table I) The assay buffer used in this screen is 0.05 M acetate, pH 4.2, 10% DMSO final, 100 uM genapol (which is a nonionic detergent, below its Critical Micelle Concentration). The beta secretase enzyme (0.2 nM) is pre-incubated for one hour with inhibitors, typically in about 1 uL of DMSO according to a serial dilution, are added thereto. This assay is effectively started by the addition of FRET substrate (50 nM) and the combination is incubated for one hour. The FRET assay is terminated with by addition of Tris buffer, which raises the pH to neutrality, and the fluorescence is determined. The FRET substrate is a peptide with commercially available fluorophore and quencher, on opposite sides of the BACE cleavage site. Proteolytic cleavage of the FRET substrate releases quenching of fluorescence (excitation 488 nm and emission […]).

[1] = Homo sapiens, HEK293, average IC50, read-out: HEK cell assay
[2] = Homo sapiens, HEK293, average IC50, cell assay, HEK cells
[3] = average IC50, cell assay, HEK cells

| IC50 (BACE) [nM] | IC50 (Aβ40; [2]) [nM] | SMILES | further results |
| --- | --- | --- | --- |
| 0.3 |  | NC1=N[C@@]2(COC1)c1cc(-c3cccnc3F)ccc1Oc1c2cc(-c2cncc(F)c2)nc1F [compound 245] | IC50 (Aβ40; [1]): 0.3 nM |
| 10.6 |  | COc1cc2c(cn1)Oc1ccc(-c3cccc(F)c3)cc1[C@@]21COCC(N)=N1 [compound 252] | IC50 (Aβ40; [1]): 50 nM |
| 3.7 |  | CC1COC(N)=N[C@]12c1cc(-c3cccnc3F)ccc1Oc1cnc(C3=CCCOC3)cc12 (stereo partly drawn) [compound 264] |  |
| 38.3 |  | COc1cc(F)c2c(c1)[C@]1(CCOC(N)=N1)c1cc(-c3cccnc3F)ccc1O2 [compound 175, (4S)-4′-fluoro-7′-(2-fluoro-3-pyridinyl)-2′-methoxy-5,6-dihydrospiro[1,3-oxazine-4,9′-xanthen]-2-amine] | IC50 (Aβ40; [1]): 93 nM |
| 29.9 |  | COc1cc(F)c2c(c1)[C@]1(CCSC(N)=N1)c1cc(-c3cccnc3F)ccc1O2 [compound 187] | IC50 (Aβ40; [1]): 159 nM |
| 9.5 | 22.5 | NC1=N[C@@]2(CCO1)c1cc(-c3cccnc3F)ccc1Oc1cnc(-c3cncc(Cl)c3)cc12 [compound 141] |  |
| 1.6 |  | CCOc1cc2c(cn1)Oc1ccc(-c3cccnc3F)cc1[C@@]21COCC(N)=N1 [compound 260] | IC50 (Aβ40; [1]): 2.1 nM |
| 2780 | 333 | CC1(COc2cc(F)c3c(c2)[C@@]2(CCOC(N)=N2)c2cc(-c4cccnc4)ccc2O3)COC1 [compound 161] |  |
| 10.5 | 19.3 | CC(C)(C)COc1cc2c(cn1)Oc1ccc(N3CCC(F)(F)CC3)cc1[C@@]21COCC(N)=N1 [Example 44, (S)-7-(4,4-difluoropiperidin-1-yl)-3-(neopentyloxy)-2′,6′-dihydrospiro[chromeno[2,3-c]pyridine-5,3′-[1,4]oxazin]-5′-amine] |  |
| 616 | 71.3 | NC1=N[C@]2(CCO1)c1cc(-c3cccnc3)ccc1Oc1c(F)cc(C3=CCCOC3)cc12 [compound 159] |  |
| 6.3 | 5.9 | CC1(COc2cc(F)c3c(c2)[C@]2(CCOC(N)=N2)c2cc(-c4cccnc4)ccc2O3)COC1 [compound 160] |  |
| 49.6 |  | NC1=N[C@]2(CCO1)c1cc(-c3cccnc3F)ccc1Oc1cnc(-c3cccnc3F)cc12 [compound 100] | IC50 (Aβ40; [3]): 184 nM |
| 2820 | 579 | NC1=N[C@]2(CCO1)c1cc(-c3cccnc3F)ccc1Oc1cnc(C3=CCOCC3)cc12 [compound 109] |  |
| 2.2 |  | NC1=N[C@]2(CCO1)c1cc(-c3cccnc3F)ccc1Oc1c2cc(-c2ccnc(F)c2)nc1F (racemic) [compound 103] | IC50 (Aβ40; [3]): 6.9 nM |
| 102 | 587 | CC(C)(C)COc1ccc2c(c1)[C@]1(COCC(N)=N1)c1cc(Br)ccc1O2 [compound 135, (3R)-2′-bromo-7′-(2,2-dimethylpropoxy)-6H-spiro[1,4-oxazine-3,9′-xanthen]-5-amine] |  |
| 2.2 | 3.3 | COc1cc2c(cn1)Oc1ccc(-c3cccnc3F)cc1[C@@]21COCC(N)=N1 [compound 123] |  |
| 1740 | 1900 | NC1=N[C@]2(CCO1)c1cc(-c3cccnc3F)ccc1Oc1c2cc(-c2cccnc2F)nc1F [compound 104] |  |
| 0.6 |  | CC(C)C#Cc1cnc2c(c1)[C@]1(COCC(N)=N1)c1cc(-c3cccnc3F)ccc1O2 [compound 213] | IC50 (Aβ40; [1]): 1 nM |
| 170 |  | N#Cc1cccc(-c2ccc3c(c2)[C@]2(CCOC(N)=N2)c2cc(-c4ccnc(F)c4)nc(F)c2O3)c1 [compound 222] | IC50 (Aβ40; [1]): 1580 nM |
| 3.6 |  | NC1=N[C@@]2(COC1)c1cc(-c3cc(F)ccc3F)ccc1Oc1ncc(-c3ccncc3)cc12 [compound 217] | IC50 (Aβ40; [1]): 4.3 nM |
| 1740 | 2640 | NC1=N[C@]2(CCO1)c1cc(-c3cccnc3F)ccc1Oc1c2cc(-c2ccnc(F)c2)nc1F [compound 106] |  |
| 12 |  | NC1=N[C@@]2(CCO1)c1cc(-c3cccnc3F)ccc1Oc1ncc(C3=CCOCC3)cc12 [compound 269] | IC50 (Aβ40; [1]): 5.6 nM |
| 132 | 132 | NC1=N[C@]2(CCO1)c1cc(-c3cccnc3F)ccc1Oc1cnc(-c3cccnc3)cc12 [compound 147] |  |
| 23700 |  | COc1ccc2c(c1)C1(CCSC(N)=N1)c1cc(Br)ccc1O2 (stereo not drawn) [compound 136] |  |
| 1040 |  | NC1=N[C@]2(CCS1)c1cc(-c3cccnc3F)ccc1Oc1ncc(C3=CCCOC3)cc12 [compound 271] | IC50 (Aβ40; [1]): 2540 nM |

| IC50 (BACE) [nM] | IC50 (Aβ40; [2]) [nM] | SMILES | further results |
| --- | --- | --- | --- |
| 10.8 | 3.4 | NC1=N[C@@]2(CCO1)c1cc(-c3cncc(F)c3)ccc1Oc1cnc(-c3cccnc3)cc12 [compound 140] |  |
| 257 | 635 | NC1=NC2(CCS1)c1cc(-c3cncnc3)ccc1Oc1ccc(-c3cncnc3)cc12 [compound 98] |  |
| 0.6 |  | NC1=N[C@@]2(COC1)c1cc(-c3cccnc3F)ccc1Oc1c2cc(C2=CCOCC2)nc1F [compound 247] | IC50 (Aβ40; [1]): 0.8 nM |
| 6.8 | 5.1 | COc1cc2c(cn1)Oc1ccc(-c3cccnc3)cc1[C@@]21COCC(N)=N1 [compound 124] |  |
| 2.3 |  | CC1(COc2cc(F)c3c(c2)[C@]2(CCOC(N)=N2)c2cc(-c4cccnc4F)ccc2O3)COC1 [compound 180] | IC50 (Aβ40; [1]): 3.2 nM |
| 88.3 |  | NC1=N[C@@]2(CO[C@@H]1c1ccccc1)c1cc(-c3cccnc3F)ccc1Oc1cnc(Cl)cc12 [compound 208] | IC50 (Aβ40; average IC50, read-out: HEK cell assay): 134 nM |
| 2.5 |  | CC(C)(C)COc1cnc2c(c1)[C@]1(CCOC(N)=N1)c1cc(-c3cccnc3F)ccc1O2 [Example 62, (S)-7-(2-fluoropyridin-3-yl)-3-(neopentyloxy)-5′,6′-dihydrospiro[chromeno[2,3-b]pyridine-5,4′-[1,3]oxazin]-2′-amine] | IC50 (Aβ40; [1]): 4.8 nM |
| 15400 |  | COc1cc(F)c2c(c1)C1(CCOC(N)=N1)c1cc(Br)ccc1O2 (racemic) [compound 20] |  |
| 4.6 | 4.1 | NC1=N[C@@]2(CCO1)c1cc(-c3cccnc3F)ccc1Oc1cnc(-c3cccnc3)cc12 [compound 148] |  |
| 20000 |  | NC1=N[C@@]2(CO[C@@H]1C(F)(F)F)c1cc(Br)ccc1Oc1cnc(Cl)cc12 [compound 205] |  |
| 890 |  | CC1COC(N)=N[C@@]12c1cc(-c3cccnc3F)ccc1Oc1cnc(C3=CCCOC3)cc12 (stereo partly drawn) [compound 261] |  |
| 4130 |  | NC1=NC2(COC1)c1cc(Br)ccc1Oc1cnc(Cl)cc12 (stereo not drawn) [compound 9] |  |
| 23100 |  | NC1=N[C@]2(COC1)c1cc(Br)ccc1Oc1cnc(Cl)cc12 (single isomer, unassigned) [Example 9B] |  |
| 7110 |  | COc1ccc2c(c1)[C@]1(COCC(N)=N1)c1cc(Br)ccc1O2 [compound 134] |  |
| 176 |  | NC1=N[C@]2(CCO1)c1cc(-c3cccnc3F)ccc1Oc1c2cc(-c2ccccc2)nc1F [compound 235] |  |
| 4.1 |  | NC1=N[C@@]2(CCO1)c1cc(-c3cccnc3F)ccc1Oc1cnc(-c3ccccc3)cc12 [compound 138] |  |
| 4220 |  | COc1cc(F)c2c(c1)[C@@]1(CCOC(N)=N1)c1cc(-c3cccnc3F)ccc1O2 [compound 174] |  |
| 4150 |  | NC1=N[C@@]2(COC1)c1cc(Br)ccc1Oc1cnc(Cl)cc12 (single isomer, unassigned) [Example 9A] |  |
|  |  | CC(C)(C)COc1ccc2c(c1)[C@]1(COCC(N)=N1)c1cc(Br)ccc1O2 [Example 67a, (3R)-2′-bromo-7′-(2,2-dimethylpropoxy)-6H-spiro[1,4-oxazine-3,9′-xanthen]-5-amine] | IC50 (Aβ40; [1]): 587 nM |
| 9590 |  | COc1cc(F)c2c(c1)[C@@]1(CCSC(N)=N1)c1cc(-c3cccnc3F)ccc1O2 [compound 186] |  |
| 2 |  | NC1=N[C@@]2(CCO1)c1cc(-c3cccnc3F)ccc1Oc1c2cc(-c2ccccc2)nc1F [compound 230] |  |
| 9960 |  | NC1=NC2(CCS1)c1cc(Br)ccc1Oc1ccc(I)cc12 (stereo not drawn) [compound 13] |  |
| 449 |  | C[C@H]1COC(N)=N[C@@]12c1cc(-c3cccnc3F)ccc1Oc1cnc(C3=CCCOC3)cc12 [compound 263] |  |
| 4.1 |  | C[C@@H]1COC(N)=N[C@]12c1cc(-c3cccnc3F)ccc1Oc1cnc(C3=CCCOC3)cc12 [compound 262] |  |

| SMILES | IC50 (BACE) [nM] | IC50 (Aβ40; [2]) [nM] | further results |
| --- | --- | --- | --- |
| NC1=NC2(CCO1)c1cc(I)ccc1Oc1ncc(Br)cc12 (stereo not drawn) [compound 25] | 16000 |  |  |
